Reference: US20120016009A1, “Optimized Methods For Delivery Of DSRNA Targeting The PCSK9 Gene” (priority 2008, published 2012)
In the oligonucleotide strings, read from the 5' end, every base follows the letter of its sugar. An asterisk marks phosphorothioate; unmarked linkages are phosphodiester. Other units and linkages are bracketed, terminal groups are in braces. A string of capitals states the bases alone. d = 2'-deoxy (DNA); m = 2'-O-methyl; r = 2'-OH (RNA); {P} = phosphate; f = 2'-fluoro

Columns and labels:
[1] = tested on: PCSK9 mRNA; experiment: PCSK9 silencing in primary cynomolgus monkey hepatocytes (dilution series from 30 nM, PCSK9/GAPDH mRNA); type: cell-based
Method: Primary cynomolgus monkey hepatocytes (cryopreserved) were obtained from In vitro Technologies, Inc. (Baltimore, Md., USA, cat No M00305) and cultured in InVitroGRO CP Medium (cat No Z99029) at 37° C. in an atmosphere with 5% CO2 in a humidified incubator.
For transfection with siRNA, primary cynomolgus monkey cells were seeded on Collagen coated plates (Fisher Scientific, cat. No. 08-774-5) at a density of 3.5×10^4 cells/well in 96-well plates and transfected directly. Transfection of siRNA (eight 2-fold dilution series starting from 30 nM) in duplicates was carried out with lipofectamine 2000 (Invitrogen GmbH, Karlsruhe, Germany, cat. No. 11668-019) as described by the manufacturer.
16 hours after transfection medium was changed to fresh InVitroGRO CP Medium with Torpedo Antibiotic Mix (In vitro Technologies, Inc, cat. No Z99000) added.
24 hours after medium change primary cynomolgus monkey cells were lysed and PCSK9 mRNA levels were quantified with the Quantigene Explore Kit (Genosprectra, Dumbarton Circle Fremont, USA, cat. No. QG-000-02) according to the protocol. PCSK9 mRNA levels were normalized to GAPDH mRNA. Normalized PCSK9/GAPDH ratios were then compared to PCSK9/GAPDH ratio of lipofectamine 2000 only control.

[2] = tested on: PCSK9; experiment: Total serum cholesterol in rats after LNP01 formulated PCSK9 siRNA (duration of action); type: in vivo, rat; settings: versus PBS or control siRNA
Method: Rats were treated via tail vein injection with 5 mg/kg of LNP01-10792 (Formulated ALDP-10792). Blood was drawn at the indicated time points (see Table 3) and the amount of total cholesterol compared to PBS treated animals was measured by standard means. Total cholesterol levels decreased at day two ˜60% and returned to baseline by day 28.
To test if acute silencing of the PCSK9 transcript by a PCSK9 siRNA (and subsequent PCSK9 protein down-regulation), would result in acutely lower total cholesterol levels, siRNA molecule AD-1a2 (AD-10792) was formulated in an LNP01 lipidoid formulation. Liposomal formulated siRNA duplex AD-1a2 (LNP01-1a2) was injected via tail vein in low volumes (˜0.2 ml for mouse and ˜1.0 ml for rats) at different doses into C57/BL6 mice or Sprague Dawley rats.
Down-modulation of total cholesterol in rats has been historically difficult as cholesterol levels remain unchanged even at high doses of HMG-CoA reductase inhibitors. […] Rats were dosed with a single injection of LNP01-a2 via tail vein at 1, 2.5 and 5 mg/kg. Liver tissue and blood were harvested 72 hours post-injection. […] The mRNA silencing was associate with an acute ˜50-60% decrease of serum total cholesterol (FIGS. 10A and 10B) lasting 10 days, with a gradual return to pre-dose levels by ˜3 weeks (FIG. 10B).
(§1) Phosphorothioate modifications at the 3′ ends of both sense and antisense strands of a dsRNA can protect against exonucleases. 2′OMe and 2′F modifications in both the sense and antisense strands of a dsRNA can protect against endonucleases. AD-1a2 (see Table 5b) contains 2′OMe modifications on both the sense and antisense strands. Experiments were performed to determine if the inherent stability (as measured by siRNA stability in human serum) or the degree or type of chemical modification (2′OMe versus 2′F or a mixture) was related to either the observed rat efficacy or the duration of silencing effects. Stability of siRNAs with the same AD-1a2 core sequence, but containing different chemical modifications were created and tested for activity in vitro in primary Cyno monkey hepatocytes. A series of these molecules that maintained similar activity as measured by in vitro IC50 values for PCSK9 silencing (Table 5b), were then tested for their stability against exo and endonuclease cleavage in human serum. Each duplex was incubated in human serum at 37° C. (a time course), and subjected to HPLC analysis. […] Sequences AD-1a3, AD-1a5, and AD-1a4, which were more heavily modified (see chemical modifications in Table 5) all had T ½'s greater than 24 hours. […] Blood was collected from animals at various days post-dose, and total cholesterol concentrations were measured. […]

[3] = tested on: primary human blood monocytes (hPBMC); experiment: IFN-alpha induction in primary human blood monocytes (hPBMC); type: cell-based; settings: for IFN-α Induction: first word of the cell IFN-α/TNF-α Induction (Yes/No); for IFN-alpha induction: human primary blood monocytes
Method: (§2) siRNAs were tested for activation of the immune system in primary human blood monocytes (hPBMC). […] However, chemically modified versions of this sequence (AD-1a2, AD-1a3, AD-1a5, and AD-1a4) as well as AD-2a1 were negative for both IFN-alpha and TNF-alpha induction in these same assays (see Table 5, and FIGS. 13A and 13B). Thus chemical modifications are capable of dampening both IFN-alpha and TNF-alpha responses to siRNA molecules.

[4] = tested on: primary human blood monocytes (hPBMC); experiment: TNF-alpha induction in primary human blood monocytes (hPBMC); type: cell-based; settings: for TNF-alpha induction: human primary blood monocytes; for TNF-α Induction: second word of the cell IFN-α/TNF-α Induction (Yes/No)
Method: as §2

[5] = tested on: PCSK9 mRNA; experiment: PCSK9 siRNA screening in HepG2 cells (lipofectamine 2000 transfection, PCSK9 mRNA by Quantigene, normalized to GAP-DH); type: cell-based, human
Outline: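 HepG2 cells, grown in MEM with 10% fetal calf serum, antibiotics, non-essential amino acids and sodium pyruvate at 37° C. and 5% CO2, were plated at 2.0×10^4 cells/well in 96-well plates and transfected directly with siRNA using lipofectamine 2000. After 24 hours, cells were lysed and PCSK9 mRNA was measured by Quantigene and normalized to GAP-DH mRNA.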

[6] = IFN-alpha activation in mice, siRNA formulated into liposomes; type: in vivo, mouse
[7] = tested on: PCSK9 mRNA; experiment: In vitro screening of modified dsRNAs targeted to PCSK9 (Table 2b; cell type not given); type: cell-based; settings: 30 nM siRNA
Outline: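 siRNA at 30 nM (single-dose screen) was transfected with lipofectamine 2000 into cells seeded at 2.0×10^4/well. After 24 h, cells were lysed and PCSK9 mRNA measured by Quantigene, normalized to GAPDH (n=8). Values are % remaining PCSK9 mRNA relative to cells given an unrelated control siRNA.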

[8] = siRNA stability in human serum at 37° C., HPLC analysis; type: in vitro ADME
Method: as §1

[9] = PCSK9 silencing in primary cynomolgus monkey hepatocytes, approximate IC50, read-out: Primary Cynomolgus Monkey Hepatocytes ~IC50
[10] = primary cynomolgus monkey hepatocytes, read-out: IC50 in Cynomolgous monkey Hepatocyte [nM]s

Substance: AD-1a3: modified dsRNA, AD-1a2 core sequence, Alt 2′ F, 2′ OMe both strands; SEQ ID NO:1509/1510 (chain 1 GCCUGGAGUUUAUUCGGAATT; chain 2 {P}-mUfUmCfCmGfAmAfUmAfAmAfCmUfCmCfAmGfGmCdT*dT; chain 1: sugars from the 5' end fmfmfmfmfmfmfmfmfmfdd, backbone not given here)
- IC50 [1, 9]: 0.07 to 0.2 nM
- decrease of total cholesterol day 2 post-dose [2]: ~60%
- IFN-α Induction [3]: No/No
- IFN-alpha induction [3]: negative
- TNF-alpha induction [4]: negative
- TNF-α Induction [4]: No/No

Substance: AD-1a4: modified dsRNA, sense 2′ OMe, antisense 2′ F all Py, 5′ Phosphate; SEQ ID NO:1511/1512 (sense rGmCmCmUrGrGrArGmUmUmUrAmUmUmCrGrGrArAdT*dT; antisense {P}-fUfUfCfCrGrArAfUrArArAfCfUfCfCrArGrGfCdT*dT)
- IC50 [1, 9]: 0.07 to 0.2 nM
- decrease of total cholesterol day 2 post-dose [2]: ~60%
- IFN-α Induction [3]: No/No
- IFN-alpha induction [3]: negative
- TNF-alpha induction [4]: negative
- TNF-α Induction [4]: No/No

Substance: AD-1a5: modified dsRNA, sense 2′ F, antisense 2′ F all Py, 5′ Phosphate; SEQ ID NO:1513/1514 (sense GCCUGGAGUUUAUUCGGAATT; antisense {P}-fUfUfCfCrGrArAfUrArArAfCfUfCfCrArGrGfCdT*dT; sense: chemistry not given here; sense strand 2'-F modified, exact pattern not fully given)
- IC50 [1, 9]: 0.07 to 0.2 nM
- decrease of total cholesterol day 2 post-dose [2]: ~60%
- IFN-α Induction [3]: No/No
- IFN-alpha induction [3]: negative
- TNF-alpha induction [4]: negative
- TNF-α Induction [4]: No/No

Substance: AD-9680: dsRNA targeting the PCSK9 gene at 3530-3548; sense SEQ ID NO:1227, antisense SEQ ID NO:1228 (sense mUmUmCmUrArGrAmCmCmUrGmUmUmUmUrGmCmUmUdT*dT; antisense rArArGmCrArArArAmCrArGrGrUrCmUrArGrArAdT*dT)
- IC50 [5]: 100 pM
- Mean percent remaining mRNA transcript at siRNA concentration/in cell type 3 nM/HepG2 ([5]; 3 nM siRNA): 22%
- Mean percent remaining mRNA transcript at siRNA concentration/in cell type 30 nM/HepG2 ([5]; 30 nM siRNA): 12%
- IC50 [1, 9]: 0.07 to 0.2 nM
- IC50 [1, 10]: 0.1 nM
- activity in vitro in primary monkey hepatocytes [1]: highly active
- IFN-α Induction [3]: No/No
- IFN-alpha induction [3]: negative
- TNF-alpha induction [4]: negative
- TNF-α Induction [4]: No/No
- IFN-alpha activation in mice [6]: neither AD-1a2, nor AD-2a1 activated IFN-alpha

Substance: AD-10792: 2′OMe modified dsRNA targeting PCSK9 at 1091-1109, SEQ ID NO:1305/1306 (chain 1 rGmCmCmUrGrGrArGmUmUmUrAmUmUmCrGrGrArAdT*dT; chain 2 rUrUrCrCrGrArAmUrArArArCrUrCmCrArGrGrCdT*dT)
- IC50 [5]: 100 pM
- IC50 [1, 9]: 0.07 to 0.2 nM
- IC50 [1, 10]: 0.1 nM
- activity in vitro in primary monkey hepatocytes [1]: active in vitro
- Remaining mRNA in % of controls at siRNA conc. of 30 nM [7]: 15%
- decrease of total cholesterol day 2 post-dose [2]: ~60%
- T ½ in pooled human serum [8]: ~7 h
- IFN-α Induction [3]: No/No
- IFN-alpha induction ([3]; listed as AD-1a2): negative
- TNF-alpha induction ([4]; listed as AD-1a2): negative
- TNF-α Induction [4]: No/No
- IFN-alpha activation in mice [6]: neither AD-1a2, nor AD-2a1 activated IFN-alpha
